Measured values reported in ChEMBL document CHEMBL1671651, “Azithromycin in Pseudomonas aeruginosa biofilms: bactericidal activity and selection of nfxB mutants” (2009).
In brackets after ≈: the same amount, converted by molar mass.

What was measured:
Type in all cases: functional
[1] = system: Pseudomonas aeruginosa; test: Antimicrobial activity against mutS::lox-deficient Pseudomonas aeruginosa PAOMSA biofilm harboring nfxB C116T mutant gene selected at 1 ug/ml of azithromycin after 1 passages by Etest method
[2] = system: Pseudomonas aeruginosa; test: Antimicrobial activity against mutS::lox-deficient Pseudomonas aeruginosa PAOMSA biofilm harboring nfxB T86C mutant gene selected at 4 ug/ml of azithromycin after 4 passages by Etest method
[3] = system: Pseudomonas aeruginosa; test: Antimicrobial activity against mucA::lox, mutS::lox-deficient Pseudomonas aeruginosa PAOMSAB biofilm harboring nfxB T86C mutant gene selected at 4 ug/ml of azithromycin after 2 passages by Etest method
[4] = system: Pseudomonas aeruginosa; test: Antimicrobial activity against nfxB gene-deficient Pseudomonas aeruginosa PAONB biofilm by Etest method
[5] = system: Pseudomonas aeruginosa; test: Antimicrobial activity against mutS::lox-deficient Pseudomonas aeruginosa PAOMSA biofilm harboring nfxB G539A mutant gene selected at 4 ug/ml of azithromycin after 6 passages by Etest method
[6] = system: Pseudomonas aeruginosa; test: Antimicrobial activity against mutS::lox,mexD::lox-deficient Pseudomonas aeruginosa PAOMSMxD biofilm by Etest method
[7] = system: Pseudomonas aeruginosa; test: Antimicrobial activity against mutS::lox-deficient Pseudomonas aeruginosa PAOMSB biofilm harboring nfxB T562C mutant gene selected at 4 ug/ml of azithromycin after 4 passages by Etest method
[8] = system: Pseudomonas aeruginosa; test: Antimicrobial activity against mutS::lox,nfxB gene-deficient Pseudomonas aeruginosa PAOMSNB biofilm by Etest method
[9] = system: Pseudomonas aeruginosa; test: Antimicrobial activity against mucA::lox-deficient Pseudomonas aeruginosa PAOMAB biofilm harboring nfxB G125T mutant gene selected at 0.5 ug/ml of azithromycin after 1 passages by Etest method
[10] = system: Pseudomonas aeruginosa; test: Antimicrobial activity against mucA::lox, mutS::lox-deficient Pseudomonas aeruginosa PAOMSAA biofilm harboring nfxB C89T mutant gene selected at 4 ug/ml of azithromycin after 6 passages by Etest method
[11] = system: Pseudomonas aeruginosa; test: Antimicrobial activity against mucA::lox, mutS::lox-deficient Pseudomonas aeruginosa PAOMSAA biofilm harboring nfxB T86C mutant gene selected at 4 ug/ml of azithromycin after 2 passages by Etest method
[12] = system: Pseudomonas aeruginosa; test: Antimicrobial activity against Pseudomonas aeruginosa PAO1 A biofilm harboring deletion mutation at nucleotide 231-244 in nfxB gene selected at 1 ug/ml of azithromycin after 4 passages by Etest method
[13] = system: Pseudomonas aeruginosa; test: Antimicrobial activity against mucA::lox, mutS::lox-deficient Pseudomonas aeruginosa PAOMSAB biofilm harboring nfxB C25T mutant gene selected at 1 ug/ml of azithromycin after 2 passages by Etest method
[14] = system: Pseudomonas aeruginosa; test: Antimicrobial activity against mucA::lox, mutS::lox-deficient Pseudomonas aeruginosa PAOMSAA biofilm harboring nfxB C89T mutant gene selected at 0.5 ug/ml of azithromycin after 3 passages by Etest method
[15] = system: Pseudomonas aeruginosa; test: Antimicrobial activity against Pseudomonas aeruginosa PAO1 A biofilm harboring duplication mutation at nucleotide 333 in nfxB gene selected at 0.5 ug/ml of azithromycin by Etest method
[16] = system: Pseudomonas aeruginosa; test: Antimicrobial activity against mutS::lox-deficient Pseudomonas aeruginosa PAOMSB biofilm harboring nfxB T380C mutant gene selected at 0.5 ug/ml of azithromycin after 2 passages by Etest method
[17] = system: Pseudomonas aeruginosa; test: Antimicrobial activity against mucA::lox, mutS::lox-deficient Pseudomonas aeruginosa PAOMSAA biofilm harboring nfxB T77C mutant gene selected at 4 ug/ml of azithromycin after 3 passages by Etest method
[18] = system: Pseudomonas aeruginosa; test: Antimicrobial activity against mutS::lox-deficient Pseudomonas aeruginosa PAOMSB biofilm harboring nfxB C116T mutant gene selected at 4 ug/ml of azithromycin after 5 passages by Etest method
[19] = system: Pseudomonas aeruginosa; test: Antimicrobial activity against mutS::lox-deficient Pseudomonas aeruginosa PAOMS biofilm by Etest method
[20] = system: Pseudomonas aeruginosa; test: Antimicrobial activity against mexD::lox-deficient Pseudomonas aeruginosa PAOMxD biofilm by Etest method
[21] = system: Pseudomonas aeruginosa; test: Antimicrobial activity against mutS::lox-deficient Pseudomonas aeruginosa PAOMSB biofilm harboring nfxB T77C mutant gene selected at 4 ug/ml of azithromycin after 6 passages by Etest method
[22] = system: Pseudomonas aeruginosa; test: Antimicrobial activity against mucA::lox, mutS::lox-deficient Pseudomonas aeruginosa PAOMSA biofilm by Etest method
[23] = system: Pseudomonas aeruginosa; test: Antimicrobial activity against mucA::lox-deficient Pseudomonas aeruginosa PAOMA biofilm by Etest method
[24] = system: Pseudomonas aeruginosa; test: Antimicrobial activity against mucA::lox, mutS::lox-deficient Pseudomonas aeruginosa PAOMSAB biofilm harboring nfxB T544C mutant gene selected at 4 ug/ml of azithromycin after 1 passages by Etest method
[25] = system: Pseudomonas aeruginosa; test: Antimicrobial activity against mutS::lox-deficient Pseudomonas aeruginosa PAOMSB biofilm harboring deletion od C534 in nfxB mutant gene selected at 4 ug/ml of azithromycin after 2 passages by Etest method
[26] = system: Pseudomonas aeruginosa; test: Antimicrobial activity against mucA::lox-deficient Pseudomonas aeruginosa PAOMAA biofilm harboring nfxB C25T mutant gene selected at 1 ug/ml of azithromycin after 2 passages by Etest method
[27] = system: Pseudomonas aeruginosa; test: Antimicrobial activity against mutS::lox-deficient Pseudomonas aeruginosa PAOMSA biofilm harboring nfxB T86C mutant gene selected at 4 ug/ml of azithromycin after 3 passages by Etest method
[28] = system: Pseudomonas aeruginosa; test: Antimicrobial activity against mutS::lox-deficient Pseudomonas aeruginosa PAOMSA biofilm harboring nfxB T533C mutant gene selected at 4 ug/ml of azithromycin after 2 passages by Etest method
[29] = system: Pseudomonas aeruginosa; test: Antimicrobial activity against Pseudomonas aeruginosa PAO1 biofilm by Etest method
[30] = system: Pseudomonas aeruginosa; test: Antimicrobial activity against mutS::lox-deficient Pseudomonas aeruginosa PAOMSA biofilm harboring nfxB G461A mutant gene selected at 4 ug/ml of azithromycin after 5 passages by Etest method
[31] = system: Pseudomonas aeruginosa; test: Antimicrobial activity against Pseudomonas aeruginosa PAO1 A biofilm harboring nfxB T248C mutant gene selected at 4 ug/ml of azithromycin after 4 passages by Etest method
[32] = system: Pseudomonas aeruginosa; test: Antimicrobial activity against mutS::lox-deficient Pseudomonas aeruginosa PAOMSB biofilm harboring nfxB T41C mutant gene selected at 4 ug/ml of azithromycin after 3 passages by Etest method
[33] = system: Pseudomonas aeruginosa; test: Antimicrobial activity against mucA::lox, mutS::lox-deficient Pseudomonas aeruginosa PAOMSAB biofilm harboring nfxB C89T mutant gene selected at 4 ug/ml of azithromycin after 6 passages by Etest method

Row | Compound | MIC [1] [µg/mL] | MIC [2] [µg/mL] | MIC [3] [µg/mL] | MIC [4] [µg/mL] | MIC [5] [µg/mL] | MIC [6] [µg/mL] | MIC [7] [µg/mL] | MIC [8] [µg/mL] | MIC [9] [µg/mL] | MIC [10] [µg/mL] | MIC [11] [µg/mL] | MIC [12] [µg/mL] | MIC [13] [µg/mL] | MIC [14] [µg/mL] | MIC [15] [µg/mL] | MIC [16] [µg/mL] | MIC [17] [µg/mL] | MIC [18] [µg/mL] | MIC [19] [µg/mL] | MIC [20] [µg/mL] | further results
1 | O=C(O)c1cn(C2CC2)c2cc(N3CCNCC3)c(F)cc2c1=O [CIPROFLOXACIN] | 4 | 1 | 3 | 1 (≈ 3.02 µM) | 1 | 0.094 (≈ 0.284 µM) | 0.75 | 1 (≈ 3.02 µM) | 3 | 3 | 3 | 3 | 3 | 3 | 3 | 4 | 3 | 1.5 | – | – | –
2 | COLISTIN | 2 | 3 | 2 | 1.5 | 1.5 | 2 | 3 | 1.5 | 1 | 2 | 3 | 2 | 2 | 1 | 1.5 | 2 | 2 | 1.5 | 2 | 2 | MIC [21]: 0.5 µg/mL; MIC [22]: 2 µg/mL; MIC [23]: 2 µg/mL; MIC [24]: 3 µg/mL; MIC [25]: 2 µg/mL; MIC [26]: 1 µg/mL; MIC [27]: 2 µg/mL; MIC [28]: 2 µg/mL; MIC [29]: 2 µg/mL; MIC [30]: 2 µg/mL; MIC [31]: 1.5 µg/mL; MIC [32]: 2 µg/mL; MIC [33]: 1 µg/mL
3 | C[C@H]1[C@H](NC(=O)/C(=N\OC(C)(C)C(=O)O)c2csc(N)n2)C(=O)N1S(=O)(=O)O [AZTREONAM] | 2 | 0.75 | 1 | 0.5 (≈ 1.15 µM) | 0.75 | 2 (≈ 4.59 µM) | 1.5 | 1 (≈ 2.3 µM) | 0.5 | 1 | 1 | 0.5 | 0.75 | 1 | 0.75 | 0.75 | 2 | 0.75 | 2 (≈ 4.59 µM) | 2 (≈ 4.59 µM) | MIC [21]: 1 µg/mL; MIC [22]: 2 µg/mL (≈ 4.59 µM); MIC [23]: 2 µg/mL (≈ 4.59 µM); MIC [24]: 2 µg/mL; MIC [25]: 2 µg/mL; MIC [26]: 0.75 µg/mL; MIC [27]: 1 µg/mL; MIC [28]: 0.75 µg/mL; MIC [29]: 2 µg/mL (≈ 4.59 µM); MIC [30]: 2 µg/mL; MIC [31]: 0.75 µg/mL; MIC [32]: 2 µg/mL; MIC [33]: 1 µg/mL
4 | CO/N=C(\C(=O)N[C@@H]1C(=O)N2C(C(=O)[O-])=C(C[N+]3(C)CCCC3)CS[C@H]12)c1csc(N)n1 [CEFEPIME] | 12 | 6 | 12 | 8 (≈ 16.6 µM) | 12 | 1.5 (≈ 3.12 µM) | 6 | 8 (≈ 16.6 µM) | 12 | 16 | 16 | 12 | 8 | 12 | 12 | 12 | 12 | 12 | 1.5 (≈ 3.12 µM) | 1.5 (≈ 3.12 µM) | MIC [21]: 12 µg/mL; MIC [22]: 1.5 µg/mL (≈ 3.12 µM); MIC [23]: 1.5 µg/mL (≈ 3.12 µM); MIC [24]: 12 µg/mL; MIC [25]: 12 µg/mL; MIC [26]: 12 µg/mL; MIC [27]: 16 µg/mL; MIC [28]: 8 µg/mL; MIC [29]: 1.5 µg/mL (≈ 3.12 µM); MIC [30]: 8 µg/mL; MIC [31]: 12 µg/mL; MIC [32]: 8 µg/mL; MIC [33]: 16 µg/mL
